Drawing on ChEMBL document CHEMBL1153800, “Carbonic anhydrase inhibitors; fluorinated phenyl sulfamates show strong inhibitory activity and selectivity for the inhibition of the tumor-associated isozymes IX and XII over the cytosolic ones I and II” (Bioorg Med Chem Lett, 2009), this text covers Ratio and Ki for two compounds.

For experiment [1], the species on record is Homo sapiens. Description: Selectivity ratio of Ki for human recombinant CA9 catalytic domain to Ki for human CA2.
Experiment [2] addresses Carbonic anhydrase 1 (Homo sapiens) (UniProt P00915).
Description: Inhibition of human CA1 by stopped flow CO2 hydration assay
Experiment [3] concerns the target Carbonic anhydrase 2 (Homo sapiens) (UniProt P00918).
Description: Inhibition of human CA2 by stopped flow CO2 hydration assay
Experiment [4] has as its target Carbonic anhydrase 9 (Homo sapiens) (UniProt Q16790).
Description: Inhibition of tumor associated human recombinant CA9 catalytic domain by stopped flow CO2 hydration assay
For experiment [5], the target named is Carbonic anhydrase 12 (Homo sapiens) (UniProt O43570).
Chain of Carbonic anhydrase 12 (Homo sapiens) (O43570 whole entry): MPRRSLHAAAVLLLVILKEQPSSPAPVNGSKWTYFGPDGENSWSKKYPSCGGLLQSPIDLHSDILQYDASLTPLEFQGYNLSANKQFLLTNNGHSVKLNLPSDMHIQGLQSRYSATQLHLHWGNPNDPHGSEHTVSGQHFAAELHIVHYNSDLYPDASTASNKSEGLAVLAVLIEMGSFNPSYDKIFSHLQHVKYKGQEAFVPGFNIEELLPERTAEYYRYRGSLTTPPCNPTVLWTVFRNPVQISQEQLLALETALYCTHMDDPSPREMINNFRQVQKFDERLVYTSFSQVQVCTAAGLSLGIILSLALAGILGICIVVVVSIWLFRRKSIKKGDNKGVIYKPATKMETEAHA
Description: Inhibition of tumor associated human recombinant CA12 catalytic domain by stopped flow CO2 hydration assay

Chain of Carbonic anhydrase 1 (Homo sapiens) (P00915 2-261 limits assumed): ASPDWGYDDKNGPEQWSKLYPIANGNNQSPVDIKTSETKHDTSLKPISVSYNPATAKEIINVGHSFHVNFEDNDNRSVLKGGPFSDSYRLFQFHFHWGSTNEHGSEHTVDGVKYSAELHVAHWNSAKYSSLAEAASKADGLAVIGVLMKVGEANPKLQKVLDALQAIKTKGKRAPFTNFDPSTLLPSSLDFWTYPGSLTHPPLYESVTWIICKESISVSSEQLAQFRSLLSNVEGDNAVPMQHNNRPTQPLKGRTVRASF

On to `NS(=O)(=O)Oc1ccc(F)cc1`, for which the Ratio in experiment [1] was determined as 11.4. Besides, the Ki in experiment [2] came out at 75 nM; in experiment [3], 74 nM; in experiment [4] it was 6.5 nM; in experiment [5] it was 3.9.
For the compound `NS(=O)(=O)Oc1ccccc1`, the values for the Ki in experiment [2], in experiment [4] and in experiment [5] were 2.1 nM, 63 nM and 56, respectively.
